From ChEMBL document CHEMBL1255363, “In vivo efficacy of beta-cyclodextrin derivatives against anthrax lethal toxin” (Antimicrob Agents Chemother, 2008) come the findings set out here.

Each structure is given as a SMILES string. Calls of active or inactive are those of the source. The calls are words filed in the database; no cut-off is given here.

The IC50 is the concentration at which inhibition is half-maximal. High values mean weaker potency, low ones greater potency.

The test system of test [1] is Bacillus anthracis. Put plainly: Antibacterial activity against Bacillus anthracis infected in Fischer 344 rat assessed as enhancement of survival rate against lethal toxin-mediated toxicity at 0.25 mg, iv coadministered along with 10 ug bacterial lethal factor measured up to 8 hrs. In kind it is functional, organism-based.
Another test concerns the target T1, Lethal factor (Bacillus anthracis, UniProt P15917).
T1 sequence (P15917 whole entry): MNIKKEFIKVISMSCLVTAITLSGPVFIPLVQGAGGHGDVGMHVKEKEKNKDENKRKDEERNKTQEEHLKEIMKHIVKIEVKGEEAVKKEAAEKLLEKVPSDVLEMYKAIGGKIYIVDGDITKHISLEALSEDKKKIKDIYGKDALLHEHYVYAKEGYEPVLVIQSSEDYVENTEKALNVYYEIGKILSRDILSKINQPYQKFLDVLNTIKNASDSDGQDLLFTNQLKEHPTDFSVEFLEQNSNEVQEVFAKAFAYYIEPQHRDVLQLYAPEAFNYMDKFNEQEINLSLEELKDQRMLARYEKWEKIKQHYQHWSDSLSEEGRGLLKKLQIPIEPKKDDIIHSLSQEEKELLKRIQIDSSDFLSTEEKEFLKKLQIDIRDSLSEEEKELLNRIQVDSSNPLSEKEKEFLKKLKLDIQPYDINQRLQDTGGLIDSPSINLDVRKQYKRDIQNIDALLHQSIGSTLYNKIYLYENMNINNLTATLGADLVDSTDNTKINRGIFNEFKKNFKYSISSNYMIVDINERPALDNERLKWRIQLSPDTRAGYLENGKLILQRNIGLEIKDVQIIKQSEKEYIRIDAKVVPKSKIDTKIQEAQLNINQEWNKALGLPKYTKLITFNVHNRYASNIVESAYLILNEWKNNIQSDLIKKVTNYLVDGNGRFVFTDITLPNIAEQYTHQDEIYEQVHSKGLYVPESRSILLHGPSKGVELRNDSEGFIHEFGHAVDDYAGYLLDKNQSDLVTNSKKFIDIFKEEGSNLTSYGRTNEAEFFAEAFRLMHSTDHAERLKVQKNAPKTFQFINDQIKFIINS
Nature of the test: Inhibition of Bacillus anthracis lethal factor.

In test [2] the test system is Bacillus anthracis. Nature of the test: Antibacterial activity against Bacillus anthracis infected in Fischer 344 rat assessed as time to death at 0.017 mg, iv coadministered along with 10 ug bacterial lethal factor up to 8 hrs. It is filed as functional.
In test [3] the test system is Bacillus anthracis. Put plainly: Antibacterial activity against Bacillus anthracis infected in Fischer 344 rat assessed as enhancement of survival rate against lethal toxin-mediated toxicity at 1.25 mg, iv administered 30 mins prior to 10 ug bacterial lethal factor infusion measured up to 8 hrs. In kind it is functional, organism-based.
Test [4] concerns Bacillus anthracis. Put plainly: Antibacterial activity against Bacillus anthracis infected in Fischer 344 rat assessed as enhancement of survival rate against lethal toxin-mediated toxicity at 0.085 mg, iv coadministered along with 10 ug bacterial lethal factor measured up to 8 hrs. It is filed as functional, organism-based.
Test [5] concerns Bacillus anthracis. Put plainly: Antibacterial activity against Bacillus anthracis infected in Fischer 344 rat assessed as enhancement of survival rate against lethal toxin-mediated toxicity at 1.25 mg, iv coadministered along with 10 ug bacterial lethal factor measured up to 8 hrs. It is filed as functional, organism-based.
Test [6] relates to Bacillus anthracis. Nature of the test: Antibacterial activity against Bacillus anthracis infected in Fischer 344 rat assessed as time to death at 0.25 mg, iv coadministered along with 10 ug bacterial lethal factor up to 8 hrs. In kind it is functional.
In test [7] the test system is Bacillus anthracis. Nature of the test: Antibacterial activity against Bacillus anthracis Sterne infected in DBA/2 mouse at 2.5 mg/kg, iv QD for 10 days measured post last dose. In kind it is functional, organism-based. Set-up: dose 2.5 mg/kg.
The test system of test [8] is Bacillus anthracis. Put plainly: Antibacterial activity against Bacillus anthracis Sterne infected in DBA/2 mouse assessed survival rate at 2.5 mg/kg, iv QD for 10 days measured post last dose in presence of 50 mg/kg/day, ip ciprofloxacin. It is filed as functional.

For `NCc1ccc(CSC[C@H]2O[C@H]3O[C@H]4[C@H](O)[C@@H](O)[C@H](O[C@H]5[C@H](O)[C@@H](O)[C@H](O[C@H]6[C@H](O)[C@@H](O)[C@H](O[C@H]7[C@H](O)[C@@H](O)[C@H](O[C@H]8[C@H](O)[C@@H](O)[C@H](O[C@H]9[C@H](O)[C@@H](O)[C@H](O[C@H]2[C@H](O)[C@H]3O)O[C@@H]9CSCc2ccc(CN)cc2)O[C@@H]8CSCc2ccc(CN)cc2)O[C@@H]7CSCc2ccc(CN)cc2)O[C@@H]6CSCc2ccc(CN)cc2)O[C@@H]5CSCc2ccc(CN)cc2)O[C@@H]4CSCc2ccc(CN)cc2)cc1`, the outcome in the test with Bacillus anthracis [1], in the test with Bacillus anthracis [3] and with Bacillus anthracis [4] was Active. In addition, on Lethal factor, the IC50 was 700 nM. In addition, the Time in the test with Bacillus anthracis [2] is listed as 382 min.

With `NCCCSC[C@H]1O[C@H]2O[C@H]3[C@H](O)[C@@H](O)[C@H](O[C@H]4[C@H](O)[C@@H](O)[C@H](O[C@H]5[C@H](O)[C@@H](O)[C@H](O[C@H]6[C@H](O)[C@@H](O)[C@H](O[C@H]7[C@H](O)[C@@H](O)[C@H](O[C@H]8[C@H](O)[C@@H](O)[C@H](O[C@H]1[C@H](O)[C@H]2O)O[C@@H]8CSCCCN)O[C@@H]7CSCCCN)O[C@@H]6CSCCCN)O[C@@H]5CSCCCN)O[C@@H]4CSCCCN)O[C@@H]3CSCCCN`, the result in the test with Bacillus anthracis [1] was inactive. Further, the result in the test with Bacillus anthracis [5] and in the test with Bacillus anthracis [3] was Active. Besides, the Time in the test on Bacillus anthracis [6] worked out at 130 min. On Lethal factor, this compound yielded an IC50 of 2900 nM.

For `NCc1cccc(CSC[C@H]2O[C@H]3O[C@H]4[C@H](O)[C@@H](O)[C@H](O[C@H]5[C@H](O)[C@@H](O)[C@H](O[C@H]6[C@H](O)[C@@H](O)[C@H](O[C@H]7[C@H](O)[C@@H](O)[C@H](O[C@H]8[C@H](O)[C@@H](O)[C@H](O[C@H]9[C@H](O)[C@@H](O)[C@H](O[C@H]2[C@H](O)[C@H]3O)O[C@@H]9CSCc2cccc(CN)c2)O[C@@H]8CSCc2cccc(CN)c2)O[C@@H]7CSCc2cccc(CN)c2)O[C@@H]6CSCc2cccc(CN)c2)O[C@@H]5CSCc2cccc(CN)c2)O[C@@H]4CSCc2cccc(CN)c2)c1`, the result in the test with Bacillus anthracis [1], with Bacillus anthracis [5], in the test with Bacillus anthracis [7], in the test with Bacillus anthracis [3] and in the test on Bacillus anthracis [4] was Active. Moreover, the IC50 on Lethal factor was found to be 500 nM. The Time in the test with Bacillus anthracis [2] is 285 min. In the test on Bacillus anthracis [8], the Activity entry is given as “<=90%”.

As to `NCCCCCCCCSC[C@H]1O[C@H]2O[C@H]3[C@H](O)[C@@H](O)[C@H](O[C@H]4[C@H](O)[C@@H](O)[C@H](O[C@H]5[C@H](O)[C@@H](O)[C@H](O[C@H]6[C@H](O)[C@@H](O)[C@H](O[C@H]7[C@H](O)[C@@H](O)[C@H](O[C@H]8[C@H](O)[C@@H](O)[C@H](O[C@H]1[C@H](O)[C@H]2O)O[C@@H]8CSCCCCCCCCN)O[C@@H]7CSCCCCCCCCN)O[C@@H]6CSCCCCCCCCN)O[C@@H]5CSCCCCCCCCN)O[C@@H]4CSCCCCCCCCN)O[C@@H]3CSCCCCCCCCN`, the outcome in the test on Bacillus anthracis [1], in the test on Bacillus anthracis [3] and with Bacillus anthracis [4] was Active. Moreover, half-maximal inhibition on Lethal factor (IC50) was put at 300 nM. Besides, the Time with Bacillus anthracis [2] was found to be 623 min.
